Like-named read-outs stand apart in the source and are kept apart here.

The test system of one series is CCRF-CEM cells. The series is described as follows: Cytostatic activity (growth inhibition) of CCRF-CEM cells in culture. In kind it is cell-based. As to conditions: Homo sapiens, 96 h. The procedure:
Cell culture and cytostatic activity (growth inhibition): The human T-cell line CCRF-CEM was obtained from J. S. Holcenberg, Childrens Hospital of Los Angeles. Maintenance of cultures in RPMI 1640 medium and growth inhibition assays were carried out as previously described^24 except that iron-supplemented bovine calf serum was used routinely in place of dialyzed fetal bovine serum and inhibition of cell growth was based on the culture densities after four days without dilution of the cultures. […] Culture densities were also determined after three days to check that the cell growth continued in cultures without cytotoxic agents.
CCRF- CEM cells were a gift from Dr. John Holcenberg and were grown in suspension as previously described.

The nature of series [1]: Relative partition coefficients between 0.1M phosphate buffer, pH 7.0 and 1-octanol. As to conditions: for logD: phosphate buffer / 1-octanol. The class given is physicochemical.
Series [2] can be described thus: Hydrolysis of the alkoxy derivatives to FdU in aqueous solution. In kind it is physicochemical. As to conditions: for conversion to FdU in aqueous solution / dependence of hydrolysis rate on hydroxide concentration: in words; for dependence of hydrolysis rate on hydroxide concentration: data not shown; for half-life at 150 µM: pH 11, 25°, 1.5×10^-4 M in unbuffered deionized water adjusted with NaOH or HCl, read-out: conversion half life (4→1) (converted). Here is the method: In aqueous solution, the 4-alkoxy derivatives (4) are converted to FdU (1). […] The reaction is both acid and base catalyzed. At pH 11, the half lives for the conversion are 3.3 and 12.5 hours, respectively for the methoxy (4a) and ethoxy (4b) derivatives.
Hydrolysis of the alkoxy derivatives (4a and 4b) Solutions of 4-methoxy (4a) and 4-ethoxy,5-fluoro, 2'-deoxyuridine (4b) (1.5×10^-4 M) were prepared in unbuffered, deionized water. The pH of the solutions was adjusted with the addition of 1N NaOH or 1N HCl. […] The UV spectrum obtained upon completion of the hydrolysis in both with both compounds 4a and 4b are indistinguishable from FdU^9. […] (data not shown).

For series [3], the system named is plasma thymidine phosphorylase. As to conditions: in words; cited from earlier work.
For series [4], the system named is human erythrocytes and lymphocytes. As to conditions: in words; cited from earlier work.
For series [5] the following is noted: AZT over dT; cited from earlier work.
The next series concerns thymidylate synthase. As to conditions: via kinase and deamination to FdUMP; in words; cited from earlier work.
The subject of the next series is DNA 5-methylcytosine. As to conditions: in words; cited from earlier work.
The next series concerns cellular DNA. As to conditions: cited from earlier work.
Where [6] appears, read: CCRF-CEM growth inhibition, four days, triplicate wells, read-out: EC50.
[7] abbreviates: 0.1M phosphate buffer, pH 7.0 / 1-octanol, read-out: relative partition coefficient (converted).

Consider `COc1nc(=O)n([C@H]2C[C@H](O)[C@@H](CO)O2)cc1F` [4-methoxyFdU (4a), 4-Methoxy, 5-fluoro, 2'-deoxyuridine], for which, in the series with CCRF-CEM cells (setting [6]), the EC50 was found to be 1800 nM. Moreover, the “lipophilicity relative to FdU” value in [1] (pH 7) was 4.5 fold. The logD in series [1] (setting [7]) is -0.62. In [2], the “conversion to FdU in aqueous solution” value is recorded as “converted quantitatively to FdU in aqueous solution”, the “dependence of hydrolysis rate on hydroxide concentration” value is “proportional to [^- OH]” and the half-life at 150 µM was 2.2 h. Further, in series [3], the “catabolism via plasma thymidine phosphorylase” value is recorded as “neither deoxycytidine derivatives^25 nor 4-methoxy-5-fluoro-2'deoxyuridine^26 are catabolized via this pathway”.

As to `O=c1[nH]c(=O)n([C@H]2C[C@H](O)[C@@H](CO)O2)cc1F` [FdU (1), reference compound], the EC50 with CCRF-CEM cells (setting [6]) is 8.9 nM. This molecule showed a logD in series [1] (pH 7) of -1.28. Moreover, the “catabolism via plasma thymidine phosphorylase” value in series [3] is “cleavage via plasma thymidine phosphorylase”.

`Cc1cn([C@H]2C[C@H](N=[N+]=[N-])[C@@H](CO)O2)c(=O)[nH]c1=O` [AZT]: in [4], the cell entry result is “can enter human erythrocytes and lymphocytes by nonfacilitated diffusion”. Besides, the “increased lipophilicity over dT” value in [5] is given as 20 fold.

For `CCOc1nc(=O)n([C@H]2C[C@H](O)[C@@H](CO)O2)cc1F` [4-ethoxyFdU (4b), 4-Ethoxy, 5-fluoro, 2'-deoxyuridine], the EC50 in the series with CCRF-CEM cells (setting [6]) worked out at 1800 nM. In series [1] (pH 7), the “lipophilicity relative to FdU” value was found to be 14.7 fold. The logD in series [1] (setting [7]) was -0.108. In addition, in series [2], the “conversion to FdU in aqueous solution” value is recorded as “converted quantitatively to FdU in aqueous solution”, the “dependence of hydrolysis rate on hydroxide concentration” value was “proportional to [^- OH]” and the half-life at 150 µM is 12.5 h. In addition, in [2] (water, pH 11, aqueous solution, read-out: half life for the conversion to FdU (converted)), the half-life was 12.5 h.

For the molecule `Nc1nc(=O)n([C@H]2C[C@H](O)[C@@H](CO)O2)cc1F` [FdC (5), 5-Fluoro, 2'-deoxycytidine], the EC50 in the series with CCRF-CEM cells (setting [6]) came to 6.9 nM. The logD in series [1] (setting [7]) was -1.55. In the series on thymidylate synthase, the “inhibition of thymidylate synthase” value is listed as “inhibition of thymidylate synthase”. The “decrease in DNA 5-methylcytosine levels” value in the series with DNA 5-methylcytosine is recorded as “dramatic decreases in DNA 5-methylcytosinelevels”. For the same molecule, the “relation of DNA incorporation to cytotoxicity” value in the series on cellular DNA is “level of FdC incorporation is proportional to cytotoxicity”.

`O=c1[nH]cc(F)c(=O)[nH]1` [fluorouracil, 5-fluorouracil, reference compound]: in the series with CCRF-CEM cells (CCRF-CEM), the EC50 was determined as 5000 nM.

Usually EC50 stands for the concentration needed to bring the measured effect to its halfway point. One may read the half-life as how long it takes for the measured level to halve.

The record behind these values is patent publication US5530110A, “4-ethoxy-5-fluoro-2'-deoxyuridine” (City of Hope, priority 1994, dated 1996).
